This note sets out measurements from BindingDB's records for doi:10.1016/j.bmcl.2010.11.060 (Msd, 2010).

The nature of the test: Inhibition of MCP1-mediated human THP cell migration.

A value given as a limit tells only on which side of the number the result lay.

What is called IC50 is the concentration needed to halve the response being measured. A lower IC50 goes with greater potency.

`Nc1nccc2cc(CNCCc3ccccc3)ccc12`: the IC50 was > 31.6 µM.

Take `C[C@@H](N)[C@H]1CC[C@H](C(=O)Nc2ccncc2)CC1` [4-[(1R)-1-aminoethyl]-N-(pyridin-4-yl)cyclohexane-1-carboxamide]: half-maximal inhibition (IC50) was put at 2.63 µM.

Turning to `O=c1[nH]ccc2c(S(=O)(=O)N3CCCNCC3)cccc12`, the IC50 worked out at 6.92 µM.

For the molecule `O=S(=O)(c1cccc2cnccc12)N1CCCNCC1` [AT877], the concentration for half-maximal inhibition (IC50) amounted to 6.92 µM.
